In patent publication US20260198495A1, “BINARY INSECTICIDE COMPOSITION AND USE THEREOF” (SHENYANG SINOCHEM AGROCHEMICALS R & D CO., LTD., priority 2022, published 2026):

How the values were obtained:
Format in all cases: in vivo
[1] = system: Aphis craccivora nymphs; test: Synergism screening (Bliss) of I-72 + pyrethroid insecticides, Example 38, Table 38; details: for mortality at 0.15 µg/mL: read-out: Measured mortality rate (%), single pesticide, concentration 0.15 mg/L, broad bean seedling spraying; for mortality at 2 µg/mL: read-out: Measured mortality rate (%), single pesticide, concentration 2 mg/L, broad bean seedling spraying; for mortality at 3 µg/mL: read-out: Measured mortality rate (%), single pesticide, concentration 3 mg/L, broad bean seedling spraying; for Measured mortality rate (%): single pesticide, broad bean seedling spraying, 48 hours
Procedure: Test target: Aphis craccivora nymphs, a sensitive strain reared indoors.
(§1) Preparation of the pesticide solution: according to different test requirements, the test samples were accurately weighed respectively with an electronic analytical balance. The technical pesticides were dissolved in acetone, and then diluted with 0.1% Tween 80 water into a series of pesticide solutions with a certain concentration gradient according to the experimental design dosage.
Experimental method: first, broad bean seedlings with uniform and consistent Aphis craccivora were selected, with about 30-40 insects on each seedling. Then, they were evenly sprayed with the pesticide solution in the order from low dosage to high dosage according to the experimental design, with 1.5 mL of the solution for each leaf and 3 replicates for each treatment. In addition, a blank control (CK) was set up.
(§2) The treated test materials were placed in an observation room, and the temperature, humidity and illumination of the observation room could be adjusted as needed. The number of dead and alive insects was investigated 48 hours later, and the corrected mortality rate was calculated using the Abbott's formula.
(§3) The synergism of the mixture was evaluated by adopting the Bliss method, as in Example 5.

[2] = system: 3rd-instar larvae of Yponomeuta evonymallus (Linnaeus); test: Synergism screening (Bliss) of I-72 + pyrethroid insecticides, Example 37, Table 37; details: single pesticide, leaf dipping, 72 hours
Procedure: Test target: 3rd-instar larvae of Yponomeuta evonymallus (Linnaeus).
as §1
(§4) Experimental method: Firstly, Hylotelephium spectabile leaves were selected and dipped into the prepared pesticide solutions for 10 s in the order from low dosage to high dosage according to the experimental design. After natural air-drying in the shade, they were placed in a 9-cm-diameter Petri dish with filter paper, and uniform and healthy test insects were introduced, with 10 insects for each treatment and 3 replicates for each treatment. In addition, a blank control (CK) was set up.
as §2, with “72” for “48”
(§5) The synergism of the mixture was evaluated by the Bliss method. According to the concept of independent joint action he proposed, Bliss believes that the theoretical mortality rate P when insecticides are used in combination can be calculated by the following formula: […]
(§6) Pm is the measured mortality rate (%) of the target when the first active ingredient is at a concentration of m; and Pn is the measured mortality rate (%) of the target when the second active ingredient is used at a concentration of n.
(§7) If the actual mortality rate of the target after the two active ingredients are mixed at a certain concentration is greater than theoretical mortality rate P, it is determined that the two active ingredients have a synergistic effect when used in combination at the set concentration, and otherwise, they have an antagonistic effect.

[3] = system: 3rd-instar larvae of Ostrinia furnacalis Guenee; test: Synergism screening (Bliss) of I-72 + ecdysteroid and juvenile hormone insecticides, Example 51, Table 51; details: Ostrinia furnacalis, 72 h, read-out: Measured mortality rate
Procedure: Test target: 3rd-instar larvae of Ostrinia furnacalis Guenee.
as §1
as §4, with “first, tender corn stems” for “Firstly, Hylotelephium spectabile leaves”, “in” for “into”, “solution” for “solutions”
as §2, with “72” for “48”
as §3

[4] = system: 2nd-instar larvae of Plutella xylostella; test: Synergism screening (Bliss) of I-72 + insect attractants and insecticides, Example 49, Table 49; details: Plutella xylostella, 72 h, read-out: Measured mortality rate
Procedure: (§8) Test target: 2nd-instar larvae of Plutella xylostella.
as §1
as §4, with “first, cabbage” for “Firstly, Hylotelephium spectabile”, “in” for “into”, “solution” for “solutions”, “CK” for “(CK)”
as §2, with “72” for “48”
as §3

[5] = system: 2nd-instar larvae of Plutella xylostella; test: whole plant or invertebrate; details: for Measured mortality rate: single pesticide, 72 hours
Procedure: as §8, §1
as §4, with “first, cabbage” for “Firstly, Hylotelephium spectabile”, “in” for “into”, “solution” for “solutions”
as §2, with “72” for “48”
as §5, §6, §7

[6] = Aphis craccivora, in Vicia faba, 48 h
[7] = Plutella xylostella, 72 h, read-out: Measured mortality rate

**Q.** With `Cc1c(COC(=O)[C@@H]2[C@H](/C=C(\Cl)C(F)(F)F)C2(C)C)cccc1-c1ccccc1` (racemic) [Bifenthrin] as the compound, how does the mortality at 0.15 µg/mL [1, 6] read?
**A.** 10%

**Q.** And the mortality at 2 µg/mL [1, 6]?
**A.** 49.1%

**Q.** What about the mortality at 3 µg/mL [1, 6] of the same compound?
**A.** 62%

**Q.** How did the “Measured mortality rate (%)” value ([2]; concentration 0.25 mg/L) turn out when `CC1(C)[C@H](C(=O)O[C@H](C#N)c2cccc(Oc3ccccc3)c2)[C@@H]1/C=C(\Cl)C(F)(F)F` (racemic) [Lambda-cyhalothrin] was run?
**A.** 16.1%

**Q.** And the “Measured mortality rate (%)” value ([2]; concentration 2 mg/L)?
**A.** 39.3%

**Q.** And the “Measured mortality rate (%)” value ([2]; concentration 5 mg/L)?
**A.** 53.3%

**Q.** Which mortality at 0.04 µg/mL [3] does the source give for `COC(C)(C)CCC[C@H](C)C/C=C/C(C)=C/C(=O)OC(C)C` (racemic) [Methoprene] here?
**A.** 10%

**Q.** What about the mortality at 2 µg/mL [3] of the same compound?
**A.** 17.9%

**Q.** And the mortality at 100 µg/mL [3]?
**A.** 25%

**Q.** How did the “Measured mortality rate (%)” value ([2]; concentration 0.5 mg/L) turn out when `CC1(C)C(C=C(Cl)Cl)C1C(=O)OC(C#N)c1cccc(Oc2ccccc2)c1` (stereo not drawn) [Alpha-cypermethrin] was run?
**A.** 9.1%

**Q.** And the “Measured mortality rate (%)” value ([2]; concentration 1 mg/L)?
**A.** 19.4%

**Q.** And the “Measured mortality rate (%)” value ([2]; concentration 5 mg/L)?
**A.** 43.8%

**Q.** What does the source list for `CC1(C)C(C=C(Cl)Cl)C1C(=O)OC(C#N)c1ccc(F)c(Oc2ccccc2)c1` (stereo not drawn) [Beta-cyfluthrin]?
**A.** Measured mortality rate (%) ([2]; concentration 0.5 mg/L): 12.9%; Measured mortality rate (%) ([2]; concentration 1 mg/L): 21.4%; Measured mortality rate (%) ([2]; concentration 5 mg/L): 51.6%

**Q.** What does the source list for `CC1(C)[C@H](C=C(Cl)Cl)[C@H]1C(=O)O[C@@H](C#N)c1cccc(Oc2ccccc2)c1` [Beta-cypermethrin]?
**A.** Measured mortality rate (%) ([1]; concentration 0.3 mg/L): 16.1%; Measured mortality rate (%) ([1]; concentration 1 mg/L): 49.7%

**Q.** How did the mortality at 0.002 µg/mL [4] turn out when `CC12CCC(CC1=O)C2(C)C` (stereo not drawn) [Camphor] was run?
**A.** 7.4%

**Q.** What about the mortality at 0.1 µg/mL [4] of the same compound?
**A.** 9.7%

**Q.** What about the mortality at 5 µg/mL [4] of the same compound?
**A.** 13.8%

**Q.** For `O=C(NC(=O)c1ccccc1Cl)Nc1ccc(Cl)cc1` [Chlorbenzuron], which Measured mortality rate ([5]; 0.01 mg/L) is on record?
**A.** 6.5%

**Q.** What about the Measured mortality rate ([5]; 0.5 mg/L) of the same compound?
**A.** 14.8%

**Q.** What about the Measured mortality rate ([5]; 25 mg/L) of the same compound?
**A.** 25.8%

**Q.** With `O=C(NC(=O)c1c(F)cccc1F)Nc1cc(Cl)c(Oc2ncc(C(F)(F)F)cc2Cl)c(Cl)c1` [Chlorfluazuron] as the compound, how does the mortality at 0.025 µg/mL [5, 7] read?
**A.** 3.4%

**Q.** What about the mortality at 0.5 µg/mL [5, 7] of the same compound?
**A.** 10.3%

**Q.** And the mortality at 10 µg/mL [5, 7]?
**A.** 24.1%

**Q.** With `CC1(C)C(C=C(Cl)Cl)C1C(=O)OC(C#N)c1ccc(F)c(Oc2ccccc2)c1` (stereo not drawn) [Cyfluthrin] as the compound, how does the “Measured mortality rate (%)” value ([2]; concentration 0.5 mg/L) read?
**A.** 10.0%

**Q.** What about the “Measured mortality rate (%)” value ([2]; concentration 1 mg/L) of the same compound?
**A.** 18.8%

**Q.** What about the “Measured mortality rate (%)” value ([2]; concentration 5 mg/L) of the same compound?
**A.** 48.4%

**Q.** `CC1(C)C(C=C(Cl)Cl)C1C(=O)OC(C#N)c1cccc(Oc2ccccc2)c1` (stereo not drawn) [Cypermethrin] was tested. Which mortality at 0.15 µg/mL [1, 6] did it give?
**A.** 13.3%

**Q.** What about the mortality at 2 µg/mL [1, 6] of the same compound?
**A.** 60.9%

**Q.** How did the mortality at 0.3 µg/mL ([1]; Aphis craccivora, in Vicia faba, 48 h, read-out: Measured mortality rate (%), single pesticide, concentration 0.3 mg/L, broad bean seedling spraying) turn out when `CC1(C)[C@H](C(=O)O[C@H](C#N)c2cccc(Oc3ccccc3)c2)[C@@H]1C=C(Br)Br` [Deltamethrin] was run?
**A.** 17.3%

**Q.** And the mortality at 1 µg/mL ([1]; Aphis craccivora, in Vicia faba, 48 h, read-out: Measured mortality rate (%), single pesticide, concentration 1 mg/L, broad bean seedling spraying)?
**A.** 28%

**Q.** And the mortality at 3 µg/mL [1, 6]?
**A.** 61.4%

**Q.** For `CC(C)c1cc(Oc2ccccc2)cc(C(C)C)c1NC(=S)NC(C)(C)C` [Diafenthiuron], which mortality at 0.025 µg/mL [5, 7] is on record?
**A.** 6.3%

**Q.** What about the mortality at 0.5 µg/mL [5, 7] of the same compound?
**A.** 13.3%

**Q.** And the mortality at 10 µg/mL [5, 7]?
**A.** 21.4%

**Q.** How did the mortality at 0.01 µg/mL [5, 7] turn out when `O=C(NC(=O)c1c(F)cccc1F)Nc1ccc(Cl)cc1` [Diflubenzuron] was run?
**A.** 11.1%

**Q.** What about the mortality at 0.5 µg/mL [5, 7] of the same compound?
**A.** 12.9%

**Q.** And the mortality at 25 µg/mL [5, 7]?
**A.** 31%

**Q.** Which “Measured mortality rate (%)” value ([2]; concentration 0.5 mg/L) does the source give for `CC(C)[C@H](C(=O)O[C@H](C#N)c1cccc(Oc2ccccc2)c1)c1ccc(Cl)cc1` [Esfenvalerate] here?
**A.** 9.4%

**Q.** And the “Measured mortality rate (%)” value ([2]; concentration 1 mg/L)?
**A.** 13.8%

**Q.** What about the “Measured mortality rate (%)” value ([2]; concentration 5 mg/L) of the same compound?
**A.** 40.0%

**Q.** With `CCOc1ccc(C(C)(C)COCc2cccc(Oc3ccccc3)c2)cc1` [Etofenprox] as the compound, how does the mortality at 0.15 µg/mL [1, 6] read?
**A.** 14%

**Q.** And the mortality at 2 µg/mL [1, 6]?
**A.** 49.5%
